The text below walks through data of ChEMBL document CHEMBL1159089, “Synthesis, antimalarial and antitubercular activity of acetylenic chalcones” (Bioorg Med Chem Lett, 2010).

One test addresses T1, Falcipain 2 (Plasmodium falciparum, UniProt Q9N6S8).
T1 sequence (Q9N6S8 whole entry): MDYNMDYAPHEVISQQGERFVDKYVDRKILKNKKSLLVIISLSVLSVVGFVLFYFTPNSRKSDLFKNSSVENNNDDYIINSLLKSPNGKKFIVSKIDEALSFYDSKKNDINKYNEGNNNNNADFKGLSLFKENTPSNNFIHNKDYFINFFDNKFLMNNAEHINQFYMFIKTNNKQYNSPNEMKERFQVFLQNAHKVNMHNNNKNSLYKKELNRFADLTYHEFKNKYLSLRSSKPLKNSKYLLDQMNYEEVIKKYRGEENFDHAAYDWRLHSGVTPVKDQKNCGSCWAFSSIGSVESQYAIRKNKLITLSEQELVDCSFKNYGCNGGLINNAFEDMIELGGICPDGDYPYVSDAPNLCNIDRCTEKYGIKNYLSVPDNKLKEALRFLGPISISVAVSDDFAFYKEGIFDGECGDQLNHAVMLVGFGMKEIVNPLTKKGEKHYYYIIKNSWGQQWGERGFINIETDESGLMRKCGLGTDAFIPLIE
The test is described as follows: Inhibition of Plasmodium falciparum falcipain-2.

Test [1] has as its system Plasmodium falciparum. The test is described as follows: Antimicrobial activity against chloroquine-sensitive Plasmodium falciparum D10. In kind it is functional, organism-based.
Test [2] deals with Plasmodium falciparum. The test is described as follows: Antimicrobial activity against chloroquine-resistant Plasmodium falciparum W2. In kind it is functional, organism-based.
Test [3] concerns Mycobacterium tuberculosis. In words: Antitubercular activity against Mycobacterium tuberculosis H37Rv by microplate Alamar blue assay. In kind it is functional. A general note: Resazurin is reduced to fluorescent resorufin, in cell work by metabolically active cells.
Test [4] concerns Mycobacterium tuberculosis. The test is described as follows: Antitubercular activity against Mycobacterium tuberculosis H37Rv by low-oxygen-recovery assay. In kind it is functional.

Usually IC50 stands for the concentration that gives 50% inhibition. Read a low IC50 as inhibition by little substance. Usually MIC stands for the smallest concentration in the dilution series that meets the test's criterion for growth inhibition. A lower MIC goes with inhibition by little substance.

Values after ≈ are worked out from the molar mass of the structure shown.

As to `C#CCOc1ccccc1/C=C/C(=O)c1ccc(OC)cc1OC`, the IC50 is above 100 µM against Falcipain 2, 8 µM in the test with Plasmodium falciparum [1] and above 20 µM in the test on Plasmodium falciparum [2]. Also, the MIC in test [3] is 59.1 µM (≈ 19.1 µg/mL); in test [4] it was 14.9 µM (≈ 4.8 µg/mL).

In the case of `C#CCOc1ccc(/C=C/C(=O)c2ccc(OC)cc2)cc1`, the IC50 is above 100 µM on Falcipain 2, above 100 µM in the test on Plasmodium falciparum [1] and above 20 µM in the test with Plasmodium falciparum [2]. For the same compound, the minimal inhibitory concentration (MIC) in test [3] is above 128 µM.

On to `C#CCOc1cccc(C(=O)/C=C/c2ccc(OC)cc2OC)c1`, for which the figures for the IC50 on Falcipain 2, in the test with Plasmodium falciparum [1] and in the test with Plasmodium falciparum [2] were above 100 µM, above 100 µM and above 20 µM, respectively. Further, the MIC in test [3] is above 128 µM.

Take `C#CCOc1cccc(C(=O)/C=C/c2ccc(OC)c(OC)c2OC)c1`: the IC50 on Falcipain 2 is above 100 µM; with Plasmodium falciparum [1] it was 33 µM; with Plasmodium falciparum [2] it was above 20 µM. Besides, the minimum inhibitory concentration (MIC) in test [3] is 58.7 µM (≈ 20.7 µg/mL); in test [4], 29.7 µM (≈ 10.5 µg/mL).

With `C#CCOc1ccc(/C=C/C(=O)c2ccc(OC)cc2OC)cc1OC`, the IC50 in the test with Plasmodium falciparum [1] worked out at 3.4 µM; with Plasmodium falciparum [2] it was 3.8 µM. Further, the MIC in test [3] is above 128 µM.

As for `C#CCOc1ccc(C(=O)/C=C/c2ccc(OC)cc2OC)cc1`, the IC50 was above 100 µM at Falcipain 2, above 100 µM in the test with Plasmodium falciparum [1] and above 20 µM with Plasmodium falciparum [2]. Moreover, the MIC stood at 31 µM (≈ 9.99 µg/mL) in test [3] and 108 µM (≈ 34.8 µg/mL) in test [4].

Take `C#CCOc1ccc(C(=O)/C=C/c2ccc(OC)c(OC)c2OC)cc1`: the IC50 at Falcipain 2 was above 100 µM; in the test with Plasmodium falciparum [1], 4.43 µM; with Plasmodium falciparum [2] it was above 20 µM. The compound also registered an MIC in test [3] above 128 µM.

Take `C#CCOc1ccc(/C=C/C(=O)c2ccc(OC)cc2)cc1OC`: the results for the IC50 in the test on Plasmodium falciparum [1] and in the test with Plasmodium falciparum [2] were 9.7 µM and 8.4 µM, respectively. In test [3], this compound registered an MIC above 128 µM.

On to `C#CCOc1ccc(/C=C/C(=O)c2ccc(OC)c(OC)c2OC)cc1OC`, for which the IC50 with Plasmodium falciparum [1] is 7.7 µM; in the test on Plasmodium falciparum [2], 7 µM. In test [3], the minimal inhibitory concentration (MIC) worked out at 109 µM (≈ 41.7 µg/mL).

`C#CCOc1ccccc1C(=O)/C=C/c1ccc(OC)c(OC)c1OC`: the IC50 is above 100 µM against Falcipain 2, above 100 µM in the test with Plasmodium falciparum [1] and above 20 µM with Plasmodium falciparum [2]. Also, the figures for the minimum inhibitory concentration (MIC) in test [3] and in test [4] were 98.7 µM (≈ 34.8 µg/mL) and 46.1 µM (≈ 16.2 µg/mL), respectively.

With `C#CCOc1cccc(C(=O)/C=C/c2ccc(OC)cc2)c1`, the figures for the IC50 at Falcipain 2, in the test with Plasmodium falciparum [1] and with Plasmodium falciparum [2] were above 100 µM, above 100 µM and above 20 µM, respectively. Besides, the MIC in test [3] is 51.2 µM (≈ 15 µg/mL); in test [4] it was above 128 µM.

With `C#CCOc1ccc(/C=C/C(=O)c2ccc(OC)c(OC)c2OC)cc1`, the 50% inhibitory concentration (IC50) on Falcipain 2 was above 100 µM; in the test with Plasmodium falciparum [1], 13.3 µM; in the test with Plasmodium falciparum [2] it was above 20 µM. The minimal inhibitory concentration (MIC) in test [3] was above 128 µM.

For the compound `C#CCOc1ccccc1C(=O)/C=C/c1ccc(OC)cc1`, the concentration for half-maximal inhibition (IC50) on Falcipain 2 was above 100 µM; in the test on Plasmodium falciparum [1] it was above 100 µM; in the test on Plasmodium falciparum [2], above 20 µM. Moreover, the figures for the MIC in test [3] and in test [4] were 31.1 µM (≈ 9.09 µg/mL) and 56.7 µM (≈ 16.6 µg/mL), respectively.

Turning to `C#CCOc1ccccc1C(=O)/C=C/c1ccc(OC)cc1OC`, the IC50 on Falcipain 2 is above 100 µM; in the test on Plasmodium falciparum [1] it was 18.9 µM; in the test on Plasmodium falciparum [2], above 20 µM. Moreover, the minimum inhibitory concentration (MIC) in test [3] came to 53.7 µM (≈ 17.3 µg/mL); in test [4] it was 62.8 µM (≈ 20.2 µg/mL).

As for `C#CCOc1cccc(/C=C/C(=O)c2ccc(OC)cc2)c1`, the IC50 was above 100 µM against Falcipain 2, 11.6 µM with Plasmodium falciparum [1] and above 20 µM in the test with Plasmodium falciparum [2]. The MIC came out at 40 µM (≈ 11.7 µg/mL) in test [3] and 31.7 µM (≈ 9.27 µg/mL) in test [4].

For `C#CCOc1cccc(/C=C/C(=O)c2ccc(OC)cc2OC)c1`, the IC50 was above 100 µM against Falcipain 2, 7.57 µM in the test on Plasmodium falciparum [1] and above 20 µM with Plasmodium falciparum [2]. Moreover, the results for the MIC in test [3] and in test [4] were 54.9 µM (≈ 17.7 µg/mL) and 26.1 µM (≈ 8.41 µg/mL), respectively.

For the compound `C#CCOc1cccc(/C=C/C(=O)c2ccc(OC)c(OC)c2OC)c1`, the concentration for half-maximal inhibition (IC50) is above 19 µM against Falcipain 2, above 100 µM in the test with Plasmodium falciparum [1] and above 20 µM in the test on Plasmodium falciparum [2]. Further, the MIC in test [3] is 54 µM (≈ 19 µg/mL); in test [4], 13.1 µM (≈ 4.62 µg/mL).

For the compound `C#CCOc1ccccc1/C=C/C(=O)c1ccc(OC)cc1`, the figures for the IC50 on Falcipain 2, in the test on Plasmodium falciparum [1] and with Plasmodium falciparum [2] were above 100 µM, above 100 µM and above 20 µM, respectively. Besides, the MIC was determined as 47.5 µM (≈ 13.9 µg/mL) in test [3] and 50.7 µM (≈ 14.8 µg/mL) in test [4].

As to `C#CCOc1ccccc1/C=C/C(=O)c1ccc(OC)c(OC)c1OC`, the figures for the concentration for half-maximal inhibition (IC50) on Falcipain 2, in the test with Plasmodium falciparum [1] and with Plasmodium falciparum [2] were above 100 µM, 50.6 µM and above 20 µM, respectively. Further, the MIC in test [3] stood at 61.9 µM (≈ 21.8 µg/mL); in test [4], 28.6 µM (≈ 10.1 µg/mL).

As to `C#CCOc1ccc(C(=O)/C=C/c2ccc(OC)c(OC)c2OC)cc1OC`, the half-maximal inhibitory concentration (IC50) was 4.1 µM in the test on Plasmodium falciparum [1] and 6.7 µM in the test with Plasmodium falciparum [2]. In addition, the MIC in test [3] was above 128 µM.

As for `C#CCOc1ccc(/C=C/C(=O)c2ccc(OC)cc2OC)cc1`, the IC50 on Falcipain 2 is above 100 µM; in the test with Plasmodium falciparum [1], 54.8 µM; in the test on Plasmodium falciparum [2] it was above 20 µM. For the same compound, in test [3], the MIC was above 128 µM.

As for `C#CCOc1ccc(C(=O)/C=C/c2ccc(OC)cc2)cc1`, the figures for the IC50 on Falcipain 2, with Plasmodium falciparum [1] and in the test on Plasmodium falciparum [2] were above 100 µM, 16.5 µM and above 20 µM, respectively. The MIC in test [3] is above 128 µM.

With `C#CCOc1ccc(C(=O)/C=C/c2ccc(OC)cc2OC)cc1OC`, the IC50 came to 20 µM with Plasmodium falciparum [1] and 9.7 µM in the test on Plasmodium falciparum [2]. In test [3], this compound gave an MIC above 128 µM.

Regarding `CC(C)C[C@H](NC(=O)[C@H]1O[C@@H]1C(=O)O)C(=O)NCCCCN=C(N)N` [E-64], the IC50 against Falcipain 2 turned out to be 0.047 µM.

On to `NNC(=O)c1ccncc1` [ISONIAZID], for which the minimal inhibitory concentration (MIC) was 0.37 µM (≈ 0.0507 µg/mL) in test [3] and above 128 µM in test [4].

For the compound `COc1c(N2C[C@@H]3CCCN[C@@H]3C2)c(F)cc2c(=O)c(C(=O)O)cn(C3CC3)c12` [MOXIFLOXACIN], the MIC in test [3] is 0.29 µM (≈ 0.116 µg/mL); in test [4] it was 31.1 µM (≈ 12.5 µg/mL).

As for `O=[N+]([O-])c1cn2c(n1)OC[C@@H](OCc1ccc(OC(F)(F)F)cc1)C2` [PRETOMANID], the MIC in test [3] came to 0.16 µM (≈ 0.0575 µg/mL); in test [4], 3.3 µM (≈ 1.19 µg/mL).

Turning to `CO[C@H]1/C=C/O[C@@]2(C)Oc3c(C)c(O)c4c(O)c(c(/C=N/N5CCN(C)CC5)c(O)c4c3C2=O)NC(=O)/C(C)=C\C=C\[C@H](C)[C@H](O)[C@@H](C)[C@@H](O)[C@@H](C)[C@H](OC(C)=O)[C@@H]1C` [RIFAMPIN], the minimal inhibitory concentration (MIC) in test [3] was determined as 0.05 µM (≈ 0.0411 µg/mL); in test [4], 2.4 µM (≈ 1.98 µg/mL).
